In patent publication US7767665B2, “1,3-benzothiazinone derivatives and use thereof” (Takeda Pharmaceutical Company Limited, priority 2001, dated 2010) one finds melting point data, which are given here for 43 compounds.

The term melting point denotes the temperature of the solid-liquid transition.

`CCN(CC)C(=O)NCCc1cccc(-c2nc(=O)c3ccccc3s2)n1` [Example 230, N,N-Diethyl-N′-[2-[6-(4-oxo-4H-1,3-benzothiazin-2-yl)-2-pyridyl]ethyl]urea]: the melting point lay within 174.9 to 175.6 °C. Under `CN(C)C(=O)Nc1cccc(-c2nc(=O)c3ccccc3s2)n1` [Example 231, N,N-Dimethyl-N′-[6-(4-oxo-4H-1,3-benzothiazin-2-yl)-2-pyridyl]urea] stands 230.1 to 230.3 °C; under `Cc1cccc2c(=O)nc(-c3cccc(C(=O)OC(C)(C)C)n3)sc12` [Example 232, tert-Butyl 6-(8-methyl-4-oxo-4H-1,3-benzothiazin-2-yl)-2-pyridinecarboxylate], 204.3 to 204.7 °C; under `Cc1cccc2c(=O)nc(-c3cccc(C(=O)O)n3)sc12` [Example 233, 6-(8-Methyl-4-oxo-4H-1,3-benzothiazin-2-yl)-2-pyridinecarboxylic acid], 260.5 to 260.8 °C. Under `Cc1cccc2c(=O)nc(-c3cccc(C(=O)NCCCCCCNC(=O)OC(C)(C)C)n3)sc12` [Example 234, tert-Butyl 6-[[[6-(8-methyl-4-oxo-4H-1,3-benzothiazin-2-yl)-2-pyridyl]carbonyl]amino]hexylcarbamate] stands 170.7 to 171.5 °C; under `O=C1c2ccccc2C(=O)N1Cc1cccc(-c2nc(=O)c3ccccc3s2)n1` [Example 236, 2-[[6-(4-Oxo-4H-1,3-benzothiazin-2-yl)-2-pyridyl]methyl]-1H-isoindole-1,3(2H)-dione], 280.4 to 281.1 °C. As for `CCCCNC(=O)c1ccc2c(=O)nc(-c3ccccn3)sc2c1` [Example 237, N-Butyl-4-oxo-2-(2-pyridyl)-4H-1,3-benzothiazine-7-carboxamide], the figure is 193.5 to 194.2 °C; as for `O=C(c1ccc2c(=O)nc(-c3ccccn3)sc2c1)N1CCCC1` [Example 238, 2-(2-Pyridyl)-7-(1-pyrrolidinylcarbonyl)-4H-1,3-benzothiazine-4-one], 173.6 to 174.2 °C. `O=C(NC1CC1)c1ccc2c(=O)nc(-c3ccccn3)sc2c1` [Example 239, N-Cyclopropyl-4-oxo-2-(2-pyridyl)-4H-1,3-benzothiazine-7-carboxamide] showed a melting point of 272.1 to 274.1 °C. The compound `O=C(c1ccc2c(=O)nc(-c3ccccn3)sc2c1)N1CCOCC1` [Example 240, 7-(4-Morpholinocarbonyl)-2-(2-pyridyl)-4H-1,3-benzothiazine-4-one] had a melting point of 217.6 to 218.8 °C. `O=c1nc(-c2ccccn2)sc2cc(Br)ccc12` [Example 241, 7-Bromo-2-(2-pyridyl)-4H-1,3-benzothiazine-4-one] showed a melting point of 230.7 to 232.2 °C. Regarding `N#Cc1cccc(-c2nc(=O)c3ccccc3s2)n1` [Example 242, 6-(4-Oxo-4H-1,3-benzothiazin-2-yl)-s-pyridinecarbonitrile], the melting point was 263.7 to 264.2 °C. Under `O=c1nc(-c2cccc(CP(=O)(O)O)n2)sc2ccccc12` [Example 244] stands 254 °C (dec.); under `O=c1nc(-c2cccc(CCP(=O)(O)O)n2)sc2ccccc12` [Example 246], 235.3 to 237.2 °C; under `CCSCc1cccc(-c2nc(=O)c3ccccc3s2)n1` [Example 249, 2-[6-[(Ethylthio)methyl]-2-pyridyl]-4H-1,3-benzothiazine-4-one], 142 to 143.5 °C. Under `CC[S+]([O-])Cc1cccc(-c2nc(=O)c3ccccc3s2)n1` (stereo not shown) [Example 250, 2-[6-[(Ethylsulfinyl)methyl]-2-pyridyl]-4H-1,3-benzothiazine-4-one] stands 188.5 to 190 °C. As for `CCS(=O)(=O)Cc1cccc(-c2nc(=O)c3ccccc3s2)n1` [Example 251, 2-[6-[(Ethylsulfonyl)methyl]-2-pyridyl]-4H-1,3-benzothiazine-4-one], the figure is 188.5 to 190 °C; as for `CCC[S+]([O-])Cc1cccc(-c2nc(=O)c3ccccc3s2)n1` (stereo not shown) [Example 253], 171 to 173 °C; as for `CCCS(=O)(=O)Cc1cccc(-c2nc(=O)c3ccccc3s2)n1` [Example 254, 2-[6-[(n-Propylsulfonyl)methyl]-2-pyridyl]-4H-1,3-benzothiazine-4-one], 177 to 179 °C. `O=c1nc(-c2cccc(CSCc3ccccc3)n2)sc2ccccc12` [Example 255, 2-[6-[(Benzylthio)methyl]-2-pyridyl]-4H-1,3-benzothiazine-4-one] came in with a melting point of 126 to 128 °C. For the compound `O=c1nc(-c2cccc(C[S+]([O-])Cc3ccccc3)n2)sc2ccccc12` (stereo not shown) [Example 256, 2-[6-[(Benzylsulfinyl)methyl]-2-pyridyl]-4H-1,3-benzothiazine-4-one], the melting point was 187 to 189 °C. As for `O=c1nc(-c2cccc(CS(=O)(=O)Cc3ccccc3)n2)sc2ccccc12` [Example 257, 2-[6-[(Benzylsulfonyl)methyl]-2-pyridyl]-4H-1,3-benzothiazine-4-one], the figure is 246 to 248 °C. As for `COC(=O)CSCc1cccc(-c2nc(=O)c3ccccc3s2)n1` [Example 258, Methyl ({[6-(4-oxo-4H-1,3-benzothiazin-2-yl)-2-pyridyl]methyl}thio)acetate], the figure is 108 to 110 °C. Under `COC(=O)C[S+]([O-])Cc1cccc(-c2nc(=O)c3ccccc3s2)n1` (stereo not shown) [Example 259, Methyl ({[6-(4-oxo-4H-1,3-benzothiazin-2-yl)-2-pyridyl]methyl}sulfinyl)acetate] stands 149.5 to 151 °C; under `COC(=O)CS(=O)(=O)Cc1cccc(-c2nc(=O)c3ccccc3s2)n1` [Example 260, Methyl ({[6-(4-oxo-4H-1,3-benzothiazin-2-yl)-2-pyridyl]methyl}sulfonyl)acetate], 205 to 207 °C; under `C[S+]([O-])c1ccc(-c2nc(=O)c3ccccc3s2)cn1` (stereo not shown) [Example 261, 2-[6-(Methylsulfinyl)-3-pyridyl]-4H-1,3-benzothiazine-4-one], 195 to 196.5 °C. Compound `CS(=O)(=O)c1ccc(-c2nc(=O)c3ccccc3s2)cn1` [Example 262, 2-[6-(Methylsulfonyl)-3-pyridyl]-4H-1,3-benzothiazine-4-one] had a melting point of 205 to 207 °C. Under `C[S+]([O-])c1cc(-c2nc(=O)c3ccccc3s2)ccn1` (stereo not shown) [Example 263, 2-[2-(Methylsulfinyl)-4-pyridyl]-4H-1,3-benzothiazine-4-one] stands 172.5 to 174 °C; under `CS(=O)(=O)c1cc(-c2nc(=O)c3ccccc3s2)ccn1` [Example 264, 2-[2-(Methylsulfonyl)-4-pyridyl]-4H-1,3-benzothiazine-4-one], 189.5 to 191.5 °C.

On to `O=c1nc(-c2cccc(CN3CCN(c4ccc(F)cc4)CC3)n2)sc2ccccc12` [Example 265, 2-(6-{[4-(4-Fluorophenyl)-1-piperazinyl]methyl}-2-pyridyl)-4H-1,3-benzothiazine-4-one], for which the melting point was 156 to 157 °C. Under `O=c1nc(-c2cccc(CN3CCCCC3)n2)sc2ccccc12` [Example 266, 2-[6-(1-Piperidinomethyl)-2-pyridyl]-4H-1,3-benzothiazine-4-one] stands 162 to 163 °C; under `O=c1nc(-c2cccc(CN3CCC(c4ccccc4)CC3)n2)sc2ccccc12` [Example 267, 2-{6-[(4-Phenyl-1-piperidyl)methyl]-2-pyridyl}-4H-1,3-benzo thiazine-4-one], 207 to 208 °C. Compound `O=c1nc(-c2cccc(CN3CCC(Cc4ccccc4)CC3)n2)sc2ccccc12` [Example 268, 2-{6-[(4-Benzyl-1-piperidyl)methyl]-2-pyridyl}-4H-1,3-benzo thiazine-4-one] showed a melting point of 151 to 153 °C.

`O=c1nc(-c2cccc(Sc3ncccn3)n2)sc2ccccc12` [Example 270, 2-[6-(2-Pyrimidinylthio)-2-pyridyl]-4H-1,3-benzothiazine-4-one] displayed a melting point of 245.2 to 245.8 °C. Under `Cn1ccnc1Sc1cccc(-c2nc(=O)c3ccccc3s2)n1` [Example 271, 2-{6-[(1-Methyl-1H-imidazol-2-yl)thio]-2-pyridyl}-4H-1,3-benzothiazine-4-one] stands 171.9 to 172.3 °C; under `O=c1nc(-c2cccc(CSc3ccccn3)n2)sc2ccccc12` [Example 272, 2-{6-[(2-Pyridylthio)methyl]-2-pyridyl}-4H-1,3-benzothiazine-4-one], 151.3 to 151.9 °C. `O=c1nc(-c2cccc(CSc3ccncc3)n2)sc2ccccc12` [Example 273, 2-{6-[(4-pyridylthio)methyl]-2-pyridyl}-4H-1,3-benzothiazine-4-one]: the melting point is 181.9 to 182.5 °C.

`O=c1nc(-c2cccc(Sc3ccncc3)n2)sc2ccccc12` [Example 274, 2-[6-(4-Pyridylthio)-2-pyridyl]-4H-1,3-benzothiazine-4-one] displayed a melting point of 245.2 to 245.8 °C.

For `CC(C)(C)OC(=O)CSc1cccc(-c2nc(=O)c3ccccc3s2)n1` [Example 275, tert-Butyl {[6-(4-oxo-4H-1,3-benzothiazin-2-yl)-2-pyridyl]thio}acetate], the melting point lay in the range of 169.5 to 170 °C. Under `O=C(O)CSc1cccc(-c2nc(=O)c3ccccc3s2)n1` [Example 276, [6-(4-Oxo-4H-1,3-benzothiazin-2-yl)-2-pyridyl]thioacetic acid] stands 258 to 260 °C. `CCOC(=O)CSc1cccc(-c2nc(=O)c3ccccc3s2)n1` [Example 277, Ethyl {[6-(4-oxo-4H-1,3-benzothiazin-2-yl)-2-pyridyl]thio}acetate] came in with a melting point of 124.5 to 125 °C. Under `CC(C)(C)OC(=O)C[S+]([O-])c1cccc(-c2nc(=O)c3ccccc3s2)n1` (stereo not shown) [Example 278, tert-Butyl {[6-(4-oxo-4H-1,3-benzothiazin-2-yl)-2-pyridyl]sulfinyl}acetate] stands 158.8 to 159.1 °C; under `O=C(O)C[S+]([O-])c1cccc(-c2nc(=O)c3ccccc3s2)n1` (stereo not shown) [Example 279, [6-(4-Oxo-4H-1,3-benzothiazin-2-yl)-2-pyridyl]sulfinylacetic acid], 186.5 to 188 °C.
